Data reported in patent US20210290784A1, “POSITRON EMISSION TOMOGRAPHY (PET) RADIOTRACERS FOR IMAGING MACROPHAGE COLONY-STIMULATING FACTOR 1 RECEPTOR (CSF1R) IN NEUROINFLAMMATION” (The Johns Hopkins University, priority 2018, published 2021).
Entries after “also recorded” stand apart in the source; their conditions may differ.

Key:
CSF1R [1] = experiment: Brain uptake in CSF1R knock-out vs control mice; format: in vivo; details: whole brain, 45 min
Method: B6.Cg-Csf1rtml.2Jwp/J (CSF1R knock-out, KO) mice (21-23 g; age=four to eight weeks; Jackson Laboratories, Bar Harbor, Me.) (5 animals) and age-matched C57BL/6J controls (23-27 g) (5 animals) were used. […] The outcome variables were calculated as % SUV.

[2] = Plasma free fraction, centrifree ultrafiltration; format: in vitro ADME; details: baboon plasma, not affected by LPS or LPS and blocking
CSF1R [3] = biological target: T1, CSF1R (Mus musculus, UniProt P09581)
T1 sequence (P09581 20-977): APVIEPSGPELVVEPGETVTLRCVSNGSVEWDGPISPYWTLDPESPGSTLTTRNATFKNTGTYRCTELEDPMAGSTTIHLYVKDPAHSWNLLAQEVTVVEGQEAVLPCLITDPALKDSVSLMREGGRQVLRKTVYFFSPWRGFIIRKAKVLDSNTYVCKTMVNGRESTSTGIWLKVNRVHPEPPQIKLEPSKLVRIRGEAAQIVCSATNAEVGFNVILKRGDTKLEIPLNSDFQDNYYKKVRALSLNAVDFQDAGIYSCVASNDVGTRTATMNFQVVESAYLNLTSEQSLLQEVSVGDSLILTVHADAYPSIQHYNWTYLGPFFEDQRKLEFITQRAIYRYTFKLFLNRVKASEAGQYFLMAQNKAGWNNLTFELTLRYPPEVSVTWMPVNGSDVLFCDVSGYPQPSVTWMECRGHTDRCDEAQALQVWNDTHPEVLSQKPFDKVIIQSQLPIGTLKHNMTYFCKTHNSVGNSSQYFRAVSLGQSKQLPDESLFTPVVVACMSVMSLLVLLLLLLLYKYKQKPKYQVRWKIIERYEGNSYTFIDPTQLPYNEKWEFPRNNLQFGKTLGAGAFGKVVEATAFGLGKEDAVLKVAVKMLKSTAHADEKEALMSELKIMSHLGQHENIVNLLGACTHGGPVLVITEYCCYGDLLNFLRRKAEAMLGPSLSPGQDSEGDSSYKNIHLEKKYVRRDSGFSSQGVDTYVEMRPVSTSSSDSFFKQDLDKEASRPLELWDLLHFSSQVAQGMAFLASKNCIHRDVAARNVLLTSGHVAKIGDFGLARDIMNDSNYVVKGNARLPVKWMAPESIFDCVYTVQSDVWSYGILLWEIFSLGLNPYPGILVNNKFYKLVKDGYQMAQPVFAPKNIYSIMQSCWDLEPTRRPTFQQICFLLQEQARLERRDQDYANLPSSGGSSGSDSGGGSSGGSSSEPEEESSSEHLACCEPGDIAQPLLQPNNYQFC

CSF1R [4] = experiment: Baboon PET (baseline, LPS, LPS-plus-blocking)
CSF1R [5] = biological target: T1, CSF1R; experiment: Brain uptake in intracranial LPS (i.c.-LPS) mouse model of neuroinflammation; format: in vivo; parameters: from tissue; host or cells: brain of living CD-1, C57BL/6J, transgenic APP (AD model), EAE and CSF1R KO mice; details: i.c.-LPS mice
Method: (§1) Experiment 1, FIG. 1A. […] CD1 mice were anaesthetized with avertin (250 mg/kg, IP). Peri-procedural analgesia was provided with finadine (2.5 mg/kg, SC). The coordinates for intraparenchymal injection in the right forebrain were AP −0.5 mm′ DV −2.5 mm; and ML 1.0 right of midline. The holes were drilled perpendicularly to the previously exposed skull. Sterile phosphate buffered saline (PBS) (0.5 μL) or 5 μg lipopolysaccharide (LPS, 011:B4, Calbiochem, San Diego, Calif.) in 0.5 μL PBS was injected into the brain parenchyma using a 1 μL Hamilton syringe. After injection, the needle was kept in the brain for additional 3 min and slowly removed. The incision was sealed with dental cement. […] The whole brains were removed and dissected on ice. […] The outcome variables were calculated as % SUV.
as §1, with “2,” for “1,”, “1B.” for “1A.”, “The” for “CD1”

CSF1R [6] = biological target: T1, CSF1R; experiment: PET/CT imaging in EAE mice; format: in vivo; parameters: from tissue; host or cells: brain of living CD-1, C57BL/6J, transgenic APP (AD model), EAE and CSF1R KO mice

[11CH3]N1CCN(c2ccc(NC(=O)c3ccc(C#N)o3)c(N3CCCCC3)c2)CC1 [[^11C]CPPC, 5-cyano-N-(4-(4-[^11C]methylpiperazin-1-yl)-2-(piperidin-1-yl)phenyl)furan-2-carboxamide]
brain uptake (% SUV) in CSF1R KO mouse brain vs. controls (CSF1R [1]): comparable
fraction unbound [2]: 0.0548 ± 0.0098
ex vivo binding potential (BPex vivo) (CSF1R [3]; LPS mice, (LPS uptake-sham uptake)/sham uptake): 0.53-0.62
SUVR uptake in i.p.-LPS mice vs controls (CSF1R [3]; experiments 2 and 3, blood-corrected, 45 min): significantly greater
blocking with nonradiolabeled CPPC, % SUV radioactivity (experiment 1) (CSF1R [3]; i.p.-LPS mice, CPPC 1 mg/kg IP, no blood correction): did not cause a significant reduction
specific fraction of whole-brain binding (CSF1R [3]; i.p.-LPS mice, blocking with CPPC and compound 8): more than 50%
parametric VT (CSF1R [4]; LPS-treated baboon (0.05 mg/kg i.v., 4 h before radiotracer)): 35-52
K1 value, LPS-treated vs baseline (CSF1R [4]; baboon): changed only slightly
decrease of metabolite-corrected radioactivity in plasma, LPS-treated vs. baseline (CSF1R [4]; baboon): ~50%
parametric VT (CSF1R [4]; baboon baseline): 15-25
peak SUV, brain (CSF1R [4]; baboon baseline, 20 min postinjection): 2.5-4.0
increase of distribution volume (VT) values in all brain regions of LPS-treated animal (CSF1R [4]; baboon, LPS 0.05 mg/kg i.v.): More than a twofold increase
VT in LPS-plus-blocking study (CSF1R [4]; baboon, blocker CPPC 1 mg/kg s.c. 1.5 h before radiotracer): reduction to the baseline level; also recorded: return to the baseline level
specific fraction of elevated binding vs. sham animals (CSF1R [5]): ~50%
reduction of uptake by blocking with nonradiolabeled CPPC, low dose (CSF1R [5]; blocker 0.3 mg/kg IP): insignificant
reduction of uptake by blocking with nonradiolabeled CPPC, higher doses (CSF1R [5]; blocker 0.6 or […] IP): significantly reduced
brainstem uptake in EAE mice vs control animals (CSF1R [6]): up to twofold greater
